In assay [1] the target is Calcium-activated potassium channel subunit beta-4 (Homo sapiens, UniProt Q86W47, Q124A). As to the kind of experiment: Binding affinity to NT-495 fluorophore reagent labelled human BK beta4 Q124A mutant incubated for 30 mins by microscale thermophoresis assay. (In MST a laser heats a spot of the sample, and binding alters the fluorescence response.)
For assay [2], the target named is T1, Calcium-activated potassium channel subunit beta-4 (Homo sapiens) (UniProt Q86W47).
T1 sequence (whole entry): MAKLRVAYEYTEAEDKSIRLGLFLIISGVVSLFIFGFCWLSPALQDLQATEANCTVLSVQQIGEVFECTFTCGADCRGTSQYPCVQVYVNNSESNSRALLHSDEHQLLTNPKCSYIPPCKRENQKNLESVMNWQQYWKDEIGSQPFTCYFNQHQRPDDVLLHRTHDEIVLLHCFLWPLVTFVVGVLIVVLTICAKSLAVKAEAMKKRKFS
The assay can be described thus: Binding affinity to 15N-labelled human BK beta4 (45 to 166 residues) at compound: protein mole ratio of 1:4 by 1H-15N HSQC NMR spectroscopy.

In assay [3] the target is KCNMA1/KCNMB4 (Rattus norvegicus) (UniProt Q62976+Q9ESK8). The assay can be described thus: Inhibition of BK alpha/beta-4 in PTZ-stimulated rat hippocampal pyramidal neurons assessed as increase in AHP size at 300 pA at -80mV holding potential measured after 10 mins by whole cell current clamp assay. The format is protein-complex assay.
Assay [4] is filed under the species Rattus norvegicus. As to the kind of experiment: Inhibition of C-Fos expression in PTZ-induced epileptic seizures Sprague-Dawley rat model assessed as inhibition of FLI-positive granular neurons in DG region of contralateral hippocampus at 10 uM compound infused into hippocampal region and 10 mins later injected with PTZ and measured after 2 hrs by immunohistochemistry. The format is functional, organism-based.

For assay [5], the species on record is Rattus norvegicus. As to the kind of experiment: Neuroprotective activity in PTZ-induced epileptic seizure Sprague-Dawley rat model assessed as inhibition of hippocampal destruction by measuring increase in Nissl stained granular neurons in ipsilateral hippocampus DG region compound infused into hippocampal region and 10 mins later injected with PTZ and measured after 3 days by Nissl staining based microscopic analysis. The format is functional, organism-based.

For assay [6], the species on record is Rattus norvegicus. The assay can be described thus: Effect on neuronal network in PTZ-induced epileptic seizures Sprague-Dawley rat model assessed as lowered PSD at gamma wave band compound infused into hippocampal region and 10 mins later injected with PTZ and measured after 2 hrs by power spectral density analysis. The format is functional, organism-based.

For assay [7], the species on record is Rattus norvegicus. As to the kind of experiment: Inhibition of C-Fos expression in PTZ-induced epileptic seizures Sprague-Dawley rat model assessed as inhibition of FLI-positive pyramidal neurons in CA1 region of ipsilateral hippocampus at 10 uM compound infused into hippocampal region and 10 mins later injected with PTZ and measured after 2 hrs by immunohistochemistry. The format is functional, organism-based.

For assay [8], the species on record is Rattus norvegicus. The assay can be described thus: Effect on neuronal network in PTZ-induced epileptic seizures Sprague-Dawley rat model assessed as lowered PSD at alpha wave band compound infused into hippocampal region and 10 mins later injected with PTZ and measured after 2 hrs by power spectral density analysis. The format is functional, organism-based.

Assay [9] addresses Calcium-activated potassium channel subunit beta-4 (Homo sapiens, UniProt Q86W47, E104K). As to the kind of experiment: Binding affinity to NT-495 fluorophore reagent labelled human BK beta4 E104K mutant incubated for 30 mins by microscale thermophoresis assay.
The species named for assay [10] is Rattus norvegicus. The assay can be described thus: Anticonvulsant activity against PTZ-induced epileptic seizure Sprague-Dawley rat model assessed as mortality rate compound infused into hippocampal region and 10 mins later injected with PTZ and measured for 2 hrs post PTZ-stimulation (reference value: 33.33%). The format is functional.
For assay [11], the species on record is Rattus norvegicus. As to the kind of experiment: Neuroprotective activity in PTZ-induced epileptic seizure Sprague-Dawley rat model assessed as inhibition of hippocampal destruction by measuring increase in Nissl stained pyramidal neurons in contralateral hippocampus CA1 region compound infused into hippocampal region and 10 mins later injected with PTZ and measured after 3 days by Nissl staining based microscopic analysis. The format is functional, organism-based.

The species entered for assay [12] is Homo sapiens. As to the kind of experiment: Selectivity ratio of compound Kd for NT-495 fluorophore reagent labelled human BK beta4 E104K mutant to compound Kd for NT-495 fluorophore reagent labelled human BK beta4 (45 to 166 residues) by microscale thermophoresis assay.
The species entered for assay [13] is Rattus norvegicus. As to the kind of experiment: Neuroprotective activity in PTZ-induced epileptic seizure Sprague-Dawley rat model assessed as inhibition of hippocampal destruction by measuring increase in Nissl stained pyramidal neurons in ipsilateral hippocampus CA3 region compound infused into hippocampal region and 10 mins later injected with PTZ and measured after 3 days by Nissl staining based microscopic analysis. The format is functional, organism-based.

Assay [14] concerns the target T2, Calcium-activated potassium channel subunit beta-4 (Homo sapiens, UniProt Q86W47).
T2 sequence (Q86W47 whole entry): T1 sequence (whole entry)
As to the kind of experiment: Binding affinity to NT-495 fluorophore reagent labelled human BK beta4 (45 to 166 residues) incubated for 30 mins by microscale thermophoresis assay. The settings on record: read-out: Kd.

The species entered for assay [15] is Rattus norvegicus. The assay can be described thus: Anticonvulsant activity against PTZ-induced epileptic seizures Sprague-Dawley rat model assessed as decrease in number of seizures at high stage (stage 4 and 5) compound infused into hippocampal region and 10 mins later injected with PTZ and measured for 2 hrs post-PTZ stimulation. The format is functional, organism-based.

The species entered for assay [16] is Rattus norvegicus. The assay can be described thus: Neuroprotective activity in PTZ-induced epileptic seizure Sprague-Dawley rat model assessed as inhibition of hippocampal destruction by measuring increase in Nissl stained granular neurons in contralateral hippocampus DG region compound infused into hippocampal region and 10 mins later injected with PTZ and measured after 3 days by Nissl staining based microscopic analysis. The format is functional, organism-based.

For assay [17], the species on record is Rattus norvegicus. As to the kind of experiment: Effect on neuronal network in PTZ-induced epileptic seizures Sprague-Dawley rat model assessed as lowered PSD at delta wave band compound infused into hippocampal region and 10 mins later injected with PTZ and measured after 2 hrs by power spectral density analysis. The format is functional, organism-based.

The species entered for assay [18] is Homo sapiens. As to the kind of experiment: Selectivity ratio of compound Kd for NT-495 fluorophore reagent labelled human BK beta4 Q124A mutant to compound Kd for NT-495 fluorophore reagent labelled human BK beta4 (45 to 166 residues) by microscale thermophoresis assay.

Activity calls are given as the source filed them. The rule behind the calls is not given here.

Sequence of Calcium-activated potassium channel subunit beta-4 (Homo sapiens, UniProt Q86W47, E104K) (Q86W47 whole entry E104K, the tested form may be a part): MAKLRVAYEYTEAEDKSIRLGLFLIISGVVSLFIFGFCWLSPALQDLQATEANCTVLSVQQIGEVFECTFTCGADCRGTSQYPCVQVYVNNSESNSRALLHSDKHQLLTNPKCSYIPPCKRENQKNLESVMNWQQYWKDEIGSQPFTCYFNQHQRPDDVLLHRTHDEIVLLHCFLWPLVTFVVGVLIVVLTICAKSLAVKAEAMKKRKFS
Sequence of Calcium-activated potassium channel subunit beta-4 (Homo sapiens, UniProt Q86W47, Q124A) (Q86W47 whole entry Q124A): as the sequence (Q86W47 whole entry E104K, the tested form may be a part) above, with K104E, Q124A counted along it

`CC[C@H](C)[C@H](NC(=O)[C@H](CC(C)C)NC(=O)CNC(=O)[C@H](Cc1ccccc1)NC(=O)[C@H](CO)NC(=O)CN)C(=O)N[C@@H](CC(=O)O)C(=O)N[C@H](C(=O)N[C@@H](CCCCN)C(=O)N[C@H]1CSSC[C@@H]2NC(=O)[C@H](CCCCN)NC(=O)CNC(=O)[C@H](CCC(N)=O)NC(=O)CNC(=O)[C@H](CO)NC(=O)CNC(=O)[C@H]([C@@H](C)O)NC(=O)[C@H](C(C)C)NC(=O)[C@H](CCCCN)NC(=O)[C@H](CCCCN)NC(=O)[C@@H]3CSSC[C@@H](C(=O)N[C@@H](Cc4ccc(O)cc4)C(=O)O)N[C@@H](CCCNC(=N)N)C(=O)[C@H](CSSC[C@H](NC(=O)[C@H](CCC(=O)O)NC(=O)[C@H](CO)NC(=O)[C@H](CO)NC(=O)[C@H](C)NC(=O)[C@H](Cc4ccccc4)NC1=O)C(=O)N[C@@H](Cc1c[nH]c4ccccc14)C(=O)N[C@@H]([C@@H](C)O)C(=O)N[C@@H](C)C(=O)N3)N[C@@H](CCC(N)=O)C(=O)NC(=O)[C@H](CC(N)=O)NC(=O)[C@H](CC(N)=O)NC(=O)[C@H](CCC(N)=O)NC2=O)C(C)C`: the Kd turned out to be 975 µM in assay [1], 782 µM in assay [9] and 511 µM in [14]. Moreover, the result (in assay [2]; in the assay listed under Rattus norvegicus [5]; in the assay listed under Rattus norvegicus [6]; in the assay listed under Rattus norvegicus [8]; in the assay filed under Rattus norvegicus [11]; in the assay filed under Rattus norvegicus [13]) was Active. The outcome in the assay filed under Rattus norvegicus [15], in the assay listed under Rattus norvegicus [16] and in the assay filed under Rattus norvegicus [17] was Active. The inhibition entry (in assay [3]; in the assay listed under Rattus norvegicus [4]; in the assay filed under Rattus norvegicus [7]) was “Active” throughout. For the same compound, in the assay filed under Rattus norvegicus [10], the mortality is 0%. Further, the Selectivity ratio in the assay filed under Homo sapiens [12] came to 1.4; in the assay filed under Homo sapiens [18], 2.

By Kd is commonly meant the concentration at which binding is half-saturated. In general, mortality refers to the percentage killed.

These data come from ChEMBL document CHEMBL4354835, “Selective Blockade of Neuronal BK (α + β4) Channels Preventing Epileptic Seizure” (J Med Chem, 2020).
